Holding throughout (assay type): cell-based
Data set [1] has as its system D54 cells. The data set is described as follows: Recovery of adherent cells after buffer incubation and plating (phase contrast imaging, confluency by ImageJ). As to conditions: 5 μM ROCKi in DEP buffer, 6 hours incubation, among DEP buffers, N=1. How it is done:
(A) Schematic describes experimental paradigm to test D54 viability after incubation in cell culture media or DEP buffer. Adherent D54 cells were dissociated then resuspended in media or DEP buffer and incubated on ice or at room temperature (RT). Cell viability was tested immediately after incubation by trypan blue. Equivalent numbers of cells were plated per condition and adherent cells observed after 1-2 days by phase contrast microscopy to assess cell recovery. (B) Cell viability after 6-hour incubation remained high for all conditions. Viability of D54 cells in DEP buffer may be slightly lower than that of cells in media. N=1. […]
(§1) DEP buffer (DB): 8.5% w/v sucrose, 0.3% w/v glucose, 0.725% RPMI. […] (B) Cells were plated after incubation and the confluency (% culture surface area covered by cells) of adherent cells measured 1 day later using ImageJ. […]
(§2) Assessing the viability of D54 cells in a DEP buffer used for sorting mouse and human neural stem and progenitor cells. […] Further, the effect of temperature of the buffer (ice or room temperature) on cell viability was also evaluated. […] After the 6-hour buffer incubation, the cells were plated under normal growth conditions and assessed by phase contrast imaging 1-2 days later to assess cell survival and growth. […]

Data set [2] concerns D54 cells. The data set is described as follows: TMZ resistance (TMZ IC50 fold change) of cells plated after buffer incubation. As to conditions: 5 μM ROCKi in DEP buffer; cells plated in normal growth medium without ROCKi. As for the experimental part:
(§3) FIG. 2A-D presents optimization of buffer conditions for DEP-based sorting of GBM cells. (A) Viability of D54 cells immediately after 6-hour RT incubation in regular growth media, DEP buffer, or DEP buffer supplemented with 5 μM ROCKi was measured by trypan blue staining. […] (B) After 6-hour incubation in media or buffers, D54 cells were plated in normal growth conditions and the number of cells measured after 2 days by XTT assay. […] Acutely isolated cells (Media control, 0 h) served as a control. (D) D54 cells were plated after 6-hour incubation in buffers and after 1 day were exposed to TMZ to assess TMZ resistance. TMZ IC50 is shown as fold change relative to media control, 0 h, and no difference in TMZ resistance was detected across samples. Error bars show SD. N≥3, one-way ANOVA, Tukey post hoc for multiple comparisons, *p<0.05, **p<0.01, ***p<0.001, ****p<0.0001.
(A) Viability of D54 cells immediately after 6-hour incubation in regular growth media, DEP buffer, or DEP buffer supplemented with 1, 5, or 10 μM ROCKi was measured by trypan blue staining. Acutely isolated cells (Media control, 0 h) served as a control. […] (C) There was no significant difference in the diameters of D54 cells in any of the conditions. (D) There was no significant difference in TMZ resistance as measured by fold change in IC50 relative to acutely isolated cells (Media control, 0 h). Error bars show SD. […]

The subject of data set [3] is D54 cells. The data set is described as follows: XTT assay of cell numbers after plating and growth for 2 days. To be noted: 5 μM ROCKi in DEP buffer vs DEP buffer without ROCKi, 6-hour incubation. As for the experimental part: as §3
D54 cell viability studies conducted with a modified DEP buffer that included ROCKi. ROCK inhibitor (ROCKi) was included in the DEP buffer at concentrations ranging from 1-10 μM. […] Addition of 5 μM ROCKi to the DEP buffer improved D54 acute viability, as assessed by trypan blue staining, and led to greater than 90% viable cells (see FIG. 2A). An XTT assay was used to measure cell numbers after plating and growth for 2 days.

Data set [4] relates to D54 cells. The data set is described as follows: D54 viability by trypan blue staining immediately after incubation in media or DEP buffer. As to conditions: for viability in the DEP buffer: 6-hour incubation. As for the experimental part: (A) Schematic describes experimental paradigm to test D54 viability after incubation in cell culture media or DEP buffer. Adherent D54 cells were dissociated then resuspended in media or DEP buffer and incubated on ice or at room temperature (RT). Cell viability was tested immediately after incubation by trypan blue. Equivalent numbers of cells were plated per condition and adherent cells observed after 1-2 days by phase contrast microscopy to assess cell recovery. (B) Cell viability after 6-hour incubation remained high for all conditions. Viability of D54 cells in DEP buffer may be slightly lower than that of cells in media. N=1. (C) Phase-contrast images of D54 cells stained with trypan blue after 6-hour incubation show high cell viability and increased clustering of cells incubated in media at RT. (D) Phase contrast images of adherent D54 cells one day after 6-hour incubation in media or DEP buffer. Cells incubated in media at RT show the best recovery, indicated by cell number and cell morphology. (E) Phase contrast images of adherent D54 cells one day after 0-6 hour incubation in media or DEP buffer. Cell recovery decreases with increasing incubation time in DEP buffer.
as §3, with “N≥3, one-way ANOVA, Tukey post hoc for multiple comparisons, *p<0.05, **p<0.01, ***p<0.001, ****p<0.0001.” left out
(A) Viability of D54 cells immediately after 6-hour incubation in regular growth media, DEP buffer, or DEP buffer supplemented with 1, 5, or 10 μM ROCKi was measured by trypan blue staining. […]
as §1, §2

Turning to `C[C@@H](N)[C@H]1CC[C@H](C(=O)Nc2ccncc2)CC1` [ROCKi, Y27632], the “confluency of adherent cells 1 day after plating” value in the data set on D54 cells [1] is reported as “the most confluency”. The “TMZ resistance (fold change in TMZ IC50)” value in the data set with D54 cells [2] was “did not alter TMZ resistance”. Moreover, the “cell numbers after plating and growth for 2 days (XTT)” value in the data set on D54 cells [3] is listed as “significantly increased cell numbers”. Moreover, the “viability in the DEP buffer” value in the data set on D54 cells [4] (1 μM ROCKi in DEP buffer) and in the data set with D54 cells [4] (5 μM ROCKi in DEP buffer) was “improved viability” in each case. The “viable cells (acute viability, trypan blue)” value in the data set with D54 cells [4] (5 μM ROCKi in DEP buffer, 6-hour RT incubation) is on record as “greater than 90%”. Also, the “best concentration for D54 cell viability” value in the data set with D54 cells [4] (ROCKi in DEP buffer at 1-10 μM) turned out to be 5 µM.

(Values after patent US20240033737A1, “DEVICES AND METHODS FOR CONTINUOUS DIELECTROPHORESIS CELL SORTING TO ISOLATE DIFFERENT POPULATIONS OF CELLS, AND APPLICATIONS THEREOF” (The Regents of the University of California, priority 2022, published 2024).)
